In patent publication US7598258B2, “Quinoline derivatives and quinazoline derivatives inhibiting autophosphorylation of macrophage colony stimulating factor receptor” (Kirin Beer Kabushiki Kaisha, priority 2002, dated 2009):
pIC50: −log10 of the molar value.

Molecular target: T1, Human KDR (Homo sapiens, UniProt P35968)
T1 construct: expressed in transfected cells; host or cells: NIH3T3 cells (mouse fibroblasts)
Test: Inhibition of KDR phosphorylation in human KDR-transfected NIH3T3 cells (ELISA)
Assay type: cell-based
Conditions: for Selection ratio (KDR phosphorylation IC50 / c-fms phosphorylation IC50): class 0-3; for pIC50: human KDR-transfected NIH3T3 cells, VEGF 100 ng/ml, ELISA, read-out: KDR phosphorylation 50% inhibitory concentration (IC50)
Outline: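 NIH3T3 cells transfected with human KDR, in 0.1% FCS medium, treated with compound 1 hr at 37° C, then stimulated with VEGF 100 ng/ml for 2 min. Lysate KDR phosphorylation measured by anti-phosphotyrosine capture/anti-KDR ELISA (A450); IC50 from inhibition normalized between VEGF-stimulated and unstimulated wells.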

T1 sequence (P35968 20-1356): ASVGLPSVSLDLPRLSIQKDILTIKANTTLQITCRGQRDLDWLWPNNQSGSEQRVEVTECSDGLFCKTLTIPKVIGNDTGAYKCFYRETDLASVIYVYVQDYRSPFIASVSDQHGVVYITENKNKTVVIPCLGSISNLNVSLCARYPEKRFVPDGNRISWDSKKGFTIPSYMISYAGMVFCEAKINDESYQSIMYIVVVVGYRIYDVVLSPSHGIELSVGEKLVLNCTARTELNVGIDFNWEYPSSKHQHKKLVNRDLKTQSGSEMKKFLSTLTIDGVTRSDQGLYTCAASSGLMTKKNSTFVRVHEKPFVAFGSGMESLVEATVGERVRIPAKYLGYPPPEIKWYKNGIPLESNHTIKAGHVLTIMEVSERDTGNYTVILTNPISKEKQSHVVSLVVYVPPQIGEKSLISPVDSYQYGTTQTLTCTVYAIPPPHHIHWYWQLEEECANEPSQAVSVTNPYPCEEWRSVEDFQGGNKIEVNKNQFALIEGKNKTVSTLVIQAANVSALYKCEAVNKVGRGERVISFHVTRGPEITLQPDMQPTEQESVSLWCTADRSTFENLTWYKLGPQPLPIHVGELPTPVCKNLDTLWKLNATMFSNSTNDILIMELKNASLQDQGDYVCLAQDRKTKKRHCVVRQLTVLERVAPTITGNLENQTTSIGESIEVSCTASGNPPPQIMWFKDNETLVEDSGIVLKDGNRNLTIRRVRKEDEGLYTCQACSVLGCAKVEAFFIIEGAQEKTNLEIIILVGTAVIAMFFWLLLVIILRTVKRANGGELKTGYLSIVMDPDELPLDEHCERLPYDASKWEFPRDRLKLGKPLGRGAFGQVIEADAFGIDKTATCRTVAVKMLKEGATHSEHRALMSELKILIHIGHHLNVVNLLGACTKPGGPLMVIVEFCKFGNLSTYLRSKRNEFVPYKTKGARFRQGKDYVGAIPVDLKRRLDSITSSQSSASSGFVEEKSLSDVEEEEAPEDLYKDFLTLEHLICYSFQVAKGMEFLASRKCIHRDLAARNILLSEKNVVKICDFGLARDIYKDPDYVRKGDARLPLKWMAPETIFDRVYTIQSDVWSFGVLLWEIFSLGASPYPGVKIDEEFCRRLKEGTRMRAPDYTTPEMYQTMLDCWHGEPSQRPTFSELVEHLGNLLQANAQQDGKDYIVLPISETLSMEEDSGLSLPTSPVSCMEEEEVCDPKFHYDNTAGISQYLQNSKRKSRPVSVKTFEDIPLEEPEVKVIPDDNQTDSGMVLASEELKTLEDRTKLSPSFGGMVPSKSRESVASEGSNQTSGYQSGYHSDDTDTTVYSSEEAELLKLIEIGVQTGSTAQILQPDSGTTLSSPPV

Structure (SMILES) | Selection ratio (KDR phosphorylation IC50 / c-fms phosphorylation IC50) | pIC50
COc1cc2nccc(Oc3ccc(NC(=O)N[C@@H](C)c4ccc(F)cc4)cc3F)c2cc1OC [Example 32, N-{4-[(6,7-Dimethoxy-4-quinolyl)oxy]-3-fluorophenyl}-N′-[(1S)-1-(4-fluorophenyl)ethyl]urea] | 1 (when the value was 5 or more) | 7.53
COc1cc2nccc(Oc3ccc(NC(=O)N[C@H](C)c4nccs4)cc3OC)c2cc1OC [Example 82, N-{4-[(6,7-Dimethoxy-4-quinolyl)oxy]-3-methoxyphenyl}-N′-[(1R)-1-(1,3-thiazol-2-yl)ethyl]urea] | 3 (when the value was 50 or more) | 6.19
COc1cc2nccc(Oc3ccc(NC(=O)NC(C)c4nccs4)cc3F)c2cc1OC (centres unmarked) [Example 73, N-{4-[(6,7-Dimethoxy-4-quinolyl)oxy]-3-fluorophenyl}-N′-[1-(1,3-thiazol-2-yl)ethyl]urea] | 2 (when the value was 10 or more) | 7.36
COc1cc2nccc(Oc3ccc(NC(=O)N[C@H](C)c4nccs4)cc3)c2cc1OC [Example 79, N-{4-[(6,7-Dimethoxy-4-quinolyl)oxy]phenyl}-N′-[(1R)-1-(1,3-thiazol-2-yl)ethyl]urea] | 2 (when the value was 10 or more) | 7.02
